Results taken from patent US11519901B2, “Method for screening for cancer therapeutic agent” (THE UNIVERSITY OF TOKYO, priority 2015, dated 2022).
Read-outs that look alike come from different tables or passages of the source.

Experiments:
[1] = tested on: HER2-amplified breast cancer cell line SK-BR3; assay: PODXL expression by RT-PCR in SK-BR3 introduced with reprogramming factor (4F); type: cell-based, human; details: 4F-introduced SK-BR3, treated with IC50 concentration of drug
Protocol: (§1) In FIG. 2, FIG. 2A is a schematic drawing describing a method of introducing reprogramming factor, MYOD1 or GFP and siRNA into MP-CCS-SY cell line. […] FIG. 2C is a schematic drawing describing introduction of a reprogramming factor into HCC827 or SK-BR3 cell line and a method of addition of each medicament.
(§2) RT-PCR was performed using the following method. Using RNeasy Plus Mini kit (Qiagen, Hilden, Germany), the total RNA was isolated. Using Go-taq qPCR Master Mix (Promega, Madison, USA), quantitative real-time PCR analysis was performed. The transcription level was standardized based on β-actin or GAPDH value.
(§3) Besides the above, an influence of the activation of oncogene signal on cell reprogramming was examined. Epithelial growth factor receptor (EGFR) mutated lung cancer cell line HCC827 and HER2-amplified breast cancer cell line SK-BR3 were used for the experiment. These cancer cell lines are sensitive to EGFR specific tyrosine kinase and HER2 tyrosine kinase inhibitor, respectively. […] Change of gene expression with or without introduction of 4F into HCC827 and SK-BR3 was examined by microarray analysis.

[2] = tested on: SK-BR3 cell line; assay: Microarray analysis of gene expression change with or without 4F in SK-BR3; type: cell-based, human; details: SK-BR3 with or without 4F introduction
Text: as §1, §3

[3] = tested on: HCC827 cell line; details: HCC827, Dox(4F)+, two days
Protocol: as §2
(§4) Using a combination of a cancer cell sensitive to a certain kind of anticancer agent and a cancer cell not sensitive to a certain kind of anticancer agent, an influence of a drug-specific cell on the reprogramming was examined. […] Two days later, RNA was extracted from the cells, and the expression levels of NANOG and GDF3 were measured by quantitative RT-PCR (FIG. 5A).

[4] = tested on: SK-BR3 cell line; assay: NANOG and GDF3 expression by quantitative RT-PCR in 4F-induced SK-BR3; type: cell-based, human; details: SK-BR3, Dox(4F)+, two days
Protocol: as §2, §4

[5] = tested on: EGFR mutation lung cancer cell line HCC827; details: stated as known; cited from earlier work
[6] = tested on: HER2-amplified breast cancer cell line SK-BR3; details: stated as known; cited from earlier work
[7] = tested on: EGFR mutated lung cancer cell line HCC827; assay: PODXL expression by RT-PCR in HCC827 introduced with reprogramming factor (4F); type: cell-based, human; details: 4F-introduced HCC827, treated with IC50 concentration of drug
Protocol: as §1, §2, §3

[8] = Imatinib 1 or 10 μM, 5-FU 10 or 50 μM (FIG. 5B legend)

Structure (SMILES)	expression of reprogramming marker PODXL [1]	change of gene expression (many genes including PODXL and NANOG), microarray [2]	expression of GDF3 ([3]; 0.5 μM)	expression of NANOG ([3]; 0.5 μM)	expression of GDF3 ([4]; 0.05 μM)	expression of NANOG ([4]; 0.05 μM)	expression of GDF3 ([4]; 0.5 μM)	expression of NANOG ([4]; 0.5 μM)	sensitivity of cell line to drug [5]	sensitivity of cell line to drug [6]	PODXL expression [7]	expression of GDF3 [3, 8]	expression of NANOG [3, 8]
CS(=O)(=O)CCNCc1ccc(-c2ccc3ncnc(Nc4ccc(OCc5cccc(F)c5)c(Cl)c4)c3c2)o1 [lapatinib]	promoted	upregulated or downregulated	promoted	promoted	promoted	promoted	promoted	promoted	sensitive	sensitive	–	–	–
O=c1[nH]cc(F)c(=O)[nH]1 [5FU, 5-fluorouracil]	did not increase	–	–	–	–	–	–	–	–	–	did not increase	did not promote	did not promote
